Results as given in US10611733B2, “Quinazolinone analogs and use of quinazolinone analogs for treating or preventing certain viral infections” (priority 2011, dated 2020).

Legend:
[1] = tested on: WNV; test: WNV antiviral assay; assay type: cell-based, West Nile Virus; details: for CC50: read-out: TC50 (the source's name)
From the text: (§1) The use of N-(2,3-dihydro-1H-inden-5-yl)-2-(4-oxo-3-phenyl-3,4-dihydroquinazolin-2-yl)thio) acetamide, a compound employed according to the present disclosure, for treating West Nile Virus has been disclosed. For example, please see Chung et al. A Cell Based Assay for the Identification of Lead Compounds with Anti-Viral Activity Against West Nile Virus, Probe Reports from the NIH Molecular Libraries Program[Internet]. Bethesda (Md.): National Center for Biotechnology Information (US); 2010-2010 Feb. 27 [updated 2010 Oct. 4], PMID: 21433390 [PubMed].

[2] = tested on: HCV Con 1b (Replicon); test: HCV Con 1b (Replicon) RNA end-point; assay type: cell-based, Hepatitis C Virus; details: HCV Con 1b replicon, RNA end-point; for CC50: read-out: TC50 (the source's name)
Experimental: The reduction in HCV was determined with two assays using viral RNA endpoints. […] This cell line expresses a subgenomic section of the HCV genome containing NS2a, NS2b, NS3a, NS3b, NS4a, NS4b, NS5a and NS5b.

[3] = molecular target: HCV Con1b (Replicon); test: HCV Con1b (Replicon) Luciferase end-point; assay type: cell-based, Hepatitis C Virus; details: for CC50: read-out: TC50 (the source's name)
[4] = tested on: JEV; test: JEV cell based virus CPE reduction assay; parameters: species or system Japanese Encephalitis Virus
From the text: as §1

O=C(CSc1nc2ccccc2c(=O)n1-c1ccccc1F)Nc1ccc2c(c1)CCC2 [Example C11, 2-[3-(2-fluorophenyl)-4-oxo(3-hydroquinazolin-2-ylthio)]-N-indan-5-ylacetamide]
IC50 [1]: 5 to 25 µM | CC50 [1]: ≥ 100 µM

O=C(CSc1nc2ccccc2c(=O)n1-c1ccc(F)c(Cl)c1)Nc1ccc2c(c1)CCC2 [Example C12, 2-[3-(3-chloro-4-fluorophenyl)-4-oxo(3-hydroquinazolin-2-ylthio)]-N-indan-5-ylacetamide]
IC50 [2]: < 1 µM | CC50 [2]: 50 to 100 µM | IC50 [3]: 1 to 5 µM | CC50 [3]: ≥ 100 µM | IC50 [1]: 5 to 25 µM | CC50 [1]: ≥ 100 µM

O=C(CSc1nc2ccccc2c(=O)n1-c1ccc(Cl)c(Cl)c1)Nc1ccc2c(c1)CCC2 [Example C13, 2-[3-(3,4-dichlorophenyl)-4-oxo(3-hydroquinazolin-2-ylthio)]-N-indan-5-ylacetamide]
IC50 [3]: 1 to 5 µM | CC50 [3]: 50 to 100 µM | IC50 [1]: 5 to 25 µM | CC50 [1]: ≥ 100 µM

Cc1cccc2c(=O)n(-c3ccccc3)c(SCC(=O)Nc3ccc4c(c3)CCC4)nc12 [Example C16, N-indan-5-yl-2-(8-methyl-4-oxo-3-phenyl(3-hydroquinazolin-2-ylthio))acetamide]
IC50 [3]: 1 to 5 µM | CC50 [3]: 10 to 50 µM

O=C(CSc1nc2ccccc2c(=O)n1-c1ccc(Cl)c(Cl)c1)Nc1cccc2c1CCC2 [Example C18, 2-[3-(3,4-dichlorophenyl)-4-oxo(3-hydroquinazolin-2-ylthio)]-N-indan-4-ylacetamide]
IC50 [3]: 5 to 25 µM | CC50 [3]: 50 to 100 µM

O=C(CSc1nc2ccccc2c(=O)n1-c1ccc(Cl)c(Cl)c1)Nc1ccc2c(c1)OCO2 [Example C19, N-(2H-benzo[d]1,3-dioxolen-5-yl)-2-[3-(3,4-dichlorophenyl)-4-oxo(3-hydroquinazolin-2-ylthio)]acetamide]
IC50 [3]: 1 to 5 µM | CC50 [3]: ≥ 100 µM

O=C(CSc1nc2ccccc2c(=O)n1-c1cc(Cl)cc(Cl)c1)Nc1ccc2c(c1)CCC2 [Example C20, 2-[3-(3,5-dichlorophenyl)-4-oxo(3-hydroquinazolin-2-ylthio)]-N-indan-5-ylacetamide]
IC50 [1]: 1 to 5 µM | CC50 [1]: ≥ 100 µM

O=C(CCSc1nc2ccccc2c(=O)n1-c1ccc(F)c(Cl)c1)Nc1ccc2c(c1)CCC2 [Example C21, 3-[3-(3-chloro-4-fluorophenyl)-4-oxo(3-hydroquinazolin-2-ylthio)]-N-indan-5-ylpropanamide]
IC50 [3]: 5 to 25 µM | CC50 [3]: 10 to 50 µM

O=C(CSc1nc2ccccc2c(=O)n1-c1ccc(F)c(Cl)c1)Nc1cccc2c1CCC2 [Example C22, 2-[3-(3-chloro-4-fluorophenyl)-4-oxo(3-hydroquinazolin-2-ylthio)]-N-indan-4-ylacetamide]
IC50 [3]: 1 to 5 µM | CC50 [3]: 10 to 50 µM

O=C(CSc1nc2ccccc2c(=O)n1-c1ccc(F)c(Cl)c1)Nc1ccc2c(c1)OCO2 [Example C23, N-(2H-benzo[3,4-d]1,3-dioxolan-5-yl)-2-[3-(3-chloro-4-fluorophenyl)-4-oxo(3-hydroquinazolin-2-ylthio)]acetamide]
IC50 [3]: 5 to 25 µM | CC50 [3]: ≥ 100 µM

O=C(CCSc1nc2ccccc2c(=O)n1-c1cc(F)c(F)c(F)c1)Nc1ccc2c(c1)CCC2 [Example C25, N-indan-5-yl-3-[4-oxo-3-(3,4,5-trifluorophenyl)(3-hydroquinazolin-2-ylthio)]propanamide]
IC50 [4]: 5 to 25 µM | CC50 ([4]; read-out: TC50 (the source's name)): ≥ 100 µM

O=C(CSc1nc2ccccc2c(=O)n1-c1ccc(F)c(F)c1)Nc1cccc2c1CCC2 [Example C26, 2-[3-(3,4-difluorophenyl)-4-oxo(3-hydroquinazolin-2-ylthio)]-N-indan-4-ylacetamide]
IC50 [2]: < 1 µM | CC50 [2]: 50 to 100 µM | IC50 [3]: < 1 µM | CC50 [3]: ≥ 100 µM

O=C(CSc1nc2ccccc2c(=O)n1-c1ccc(F)c(F)c1)Nc1ccc2c(c1)CCC2 [Example C27, 2-[3-(3,4-difluorophenyl)-4-oxo(3-hydroquinazolin-2-ylthio)]-N-indan-5-ylacetamide]
IC50 [3]: 5 to 25 µM | CC50 [3]: ≥ 100 µM | IC50 [1]: 5 to 25 µM | CC50 [1]: ≥ 100 µM

O=C(CSc1nc2cccc(F)c2c(=O)n1-c1ccccc1)NC1CCCc2ccccc21 (stereo not shown) [Example C28, 2-(5-fluoro-4-oxo-3-phenyl(3-hydroquinazolin-2-ylthio))-N-(1,2,3,4-tetrahydronaphthyl)acetamide]
IC50 [3]: 5 to 25 µM | CC50 [3]: ≥ 100 µM

O=C(CSc1nc2cccc(F)c2c(=O)n1-c1ccc(Cl)c(F)c1)Nc1ccc2c(c1)CCC2 [Example C29, 2-[3-(4-chloro-3-fluorophenyl)-5-fluoro-4-oxo(3-hydroquinazolin-2-ylthio)]-N-indan-5-ylacetamide]
IC50 [3]: 1 to 5 µM | CC50 [3]: ≥ 100 µM

O=C(CSc1nc2cccc(F)c2c(=O)n1-c1cc(F)c(F)c(F)c1)Nc1ccc2c(c1)CCC2 [Example C30, 2-[5-fluoro-4-oxo-3-(3,4,5-trifluorophenyl)(3-hydroquinazolin-2-ylthio)]-N-indan-5-ylacetamide]
IC50 [3]: 1 to 5 µM | CC50 [3]: 50 to 100 µM

O=C(CSc1nc2cccc(F)c2c(=O)n1-c1ccc(Cl)c(Cl)c1)Nc1ccc2c(c1)CCC2 [Example C31]
IC50 [3]: < 1 µM | CC50 [3]: 10 to 50 µM | IC50 [1]: 5 to 25 µM | CC50 [1]: ≥ 100 µM

O=C(CSc1nc2ccccc2c(=O)n1-c1ccccc1)Nc1ccc2c(c1)CCC2 [Example C32, N-indan-5-yl-2-(4-oxo-3-phenyl(3-hydroquinazolin-2-ylthio))acetamide]
IC50 [1]: 5 to 25 µM | CC50 [1]: ≥ 100 µM

Cc1cc(-n2c(SCC(=O)Nc3ccc4c(c3)CCC4)nc3ccccc3c2=O)ccc1Cl [Example C33, 2-[3-(4-chloro-3-methylphenyl)-4-oxo(3-hydroquinazolin-2-ylthio)]-N-indan-5-ylacetamide]
IC50 [1]: 1 to 5 µM | CC50 [1]: 50 to 100 µM

Cc1cc(-n2c(SCC(=O)Nc3ccc4c(c3)CCC4)nc3ccccc3c2=O)ccc1F [Example C34, 2-[3-(4-fluoro-3-methylphenyl)-4-oxo(3-hydroquinazolin-2-ylthio)]-N-indan-5-ylacetamide]
IC50 [1]: 5 to 25 µM | CC50 [1]: ≥ 100 µM

O=C(CSc1nc2ccccc2c(=O)n1-c1cc(F)c(F)c(F)c1)Nc1ccc2c(c1)CCC2 [Example C35, N-indan-5-yl-2-[4-oxo-3-(3,4,5-trifluorophenyl)(3-hydroquinazolin-2-ylthio)]acetamide]
IC50 [1]: 5 to 25 µM | CC50 [1]: ≥ 100 µM

Cc1ccc(-n2c(SCC(=O)Nc3ccc4c(c3)CCC4)nc3ccccc3c2=O)cc1Br [Example C36, 2-[3-(3-bromo-4-methylphenyl)-4-oxo(3-hydroquinazolin-2-ylthio)]-N-indan-5-ylacetamide]
IC50 [1]: 5 to 25 µM | CC50 [1]: ≥ 100 µM

O=C(CSc1nc2c(F)cccc2c(=O)n1-c1ccc(Cl)c(Cl)c1)Nc1ccc2c(c1)CCC2 [Example C37, 2-[3-(3,4-dichlorophenyl)-8-fluoro-4-oxo(3-hydroquinazolin-2-ylthio)]-N-indan-5-ylacetamide]
IC50 [1]: 5 to 25 µM | CC50 [1]: 10 to 50 µM

O=C(CSc1nc2ccccc2c(=O)n1-c1cc(F)cc(F)c1)Nc1ccc2c(c1)CCC2 [Example C38, 2-[3-(3,5-difluorophenyl)-4-oxo(3-hydroquinazolin-2-ylthio)]-N-indan-5-ylacetamide]
IC50 [1]: 5 to 25 µM | CC50 [1]: ≥ 100 µM

O=C(CSc1nc2c(F)cccc2c(=O)n1-c1cc(Cl)cc(Cl)c1)Nc1ccc2c(c1)CCC2 [Example C39, 2-[3-(3,5-dichlorophenyl)-8-fluoro-4-oxo(3-hydroquinazolin-2-ylthio)]-N-indan-5-ylacetamide]
IC50 [1]: 5 to 25 µM | CC50 [1]: 50 to 100 µM

O=C(CSc1nc2ccccc2c(=O)n1-c1c(Cl)cccc1Cl)Nc1ccc2c(c1)CCC2 [Example C40, 2-[3-(2,6-dichlorophenyl)-4-oxo(3-hydroquinazolin-2-ylthio)]-N-indan-5-ylacetamide]
IC50 [1]: 5 to 25 µM | CC50 [1]: ≥ 100 µM

O=C(CSc1nc2ccccc2c(=O)n1-c1ccc(Cl)c(Br)c1)Nc1ccc2c(c1)CCC2 [Example C41, 2-[3-(3-bromo-4-chlorophenyl)-4-oxo(3-hydroquinazolin-2-ylthio)]-N-indan-5-ylacetamide]
IC50 [1]: 5 to 25 µM | CC50 [1]: ≥ 100 µM

O=C(CSc1nc2c(F)cccc2c(=O)n1-c1ccccc1)Nc1ccc2c(c1)CCC2 [Example C42, 2-(8-fluoro-4-oxo-3-phenyl(3-hydroquinazolin-2-ylthio))-N-indan-5-ylacetamide]
IC50 [1]: 5 to 25 µM | CC50 [1]: ≥ 100 µM

O=C(CSc1nc2ccccc2c(=O)n1-c1cc(F)c(F)cn1)Nc1ccc2c(c1)CCC2 [Example C43, 2-[3-(4,5-difluoro(2-pyridyl))-4-oxo(3-hydroquinazolin-2-ylthio)]-N-indan-5-ylacetamide]
IC50 [1]: 5 to 25 µM | CC50 [1]: ≥ 100 µM

O=C(CSc1nc2ccccc2c(=O)n1-c1ccc(Cl)c(Cl)c1)Nc1nc(-c2ccccc2)cs1 [Example C45, 2-[3-(3,4-dichlorophenyl)-4-oxo(3-hydroquinazolin-2-ylthio)]-N-(4-phenyl(1,3-thiazol-2-yl))acetamide]
IC50 [2]: < 1 µM | CC50 [2]: 50 to 100 µM | IC50 [3]: < 1 µM | CC50 [3]: ≥ 100 µM

O=C(CSc1nc2ccccc2c(=O)n1-c1ccc(Cl)c(Cl)c1)Nc1ccc2scnc2c1 [Example C46, N-benzothiazol-5-yl-2-[3-(3,4-dichlorophenyl)-4-oxo(3-hydroquinazolin-2-ylthio)]acetamide]
IC50 [3]: 1 to 5 µM | CC50 [3]: ≥ 100 µM
